# Data: US11229628B2, “TRPA1 and TRPV4 inhibitors and methods of using the same for organ-specific inflammation and itch” (Duke University, priority 2015, dated 2022)
# Entries after “also recorded” stand apart in the source; their conditions may differ.
# How the values were obtained:
# ET1 expression in 1° MK = assay: ET1 expression by UVB-exposed 1° MK (immunocytochemistry); format: cell-based, mouse; conditions: 295 nm UVB-LED, 24 hours
# Experimental: 1° MK were exposed to UVB using the UV optical system (295 nm LED). 24 hours later the cells were fixed and fluorescently immunolabeled for ET1. Digital images were captured and subjected to morphometry.
# Mouse keratinocytes were cultured on collagen coated quartz coverslips and then stimulated from the bottom using the previously mentioned UV optical system using the 295 nm LED. 24 hours later the cells were fixed in 4% formaldehyde in PBS for 20 minutes, permeabilized with 0.1% Triton X-100 in PBS for 10 minutes, washed, then blocked in 10% normal goat serum in PBS for 45 minutes. Coverslips were incubated overnight with primary antibody mouse anti-ET1 (1:200; Abcam), washed three times in PBS and incubated with secondary antibody for 2 hours at 25° C. Coverslips were washed three times in PBS, once with double-distilled H2O. Digital images were captured using a 40× immersion lens on the BX61 Olympus upright microscope. Morphometric analysis was conducted using ImageJ freeware with tailored regions-of-interest.
# (§1) We tested whether UVB causes ET1 upregulation in a TRPV4-dependent manner. Given the exquisite wave-length dependence of ET1 expression in 1° MKs, we resorted to the UVB-LED device as for Ca++ imaging (FIG. 6A and FIG. 2A-D). […] Consistent with its effects on UVB-evoked Ca++ transients, PLC-inhibitor U73122 also dampened ET1 expression. […] This leads to TRPV4-dependent Ca++ signaling, which in turn amplifies ET1 signaling in a paracrine/autocrine fashion.
# mice = assay: UVB-evoked nocifensive behavior after topical GSK205 (Hargreaves' test, von Frey hair); format: in vivo, mouse
# Experimental: A viscous solution of 68% EtOH/5% glycerol plus 1 mM or 5 mM GSK205 (none for control) was applied to hindpaws by rubbing in 20 μL, applied at time-points 1 hour and again 10 min before UV exposure.
# Behavioral tests were performed to evaluate the decrease in withdrawal thresholds in response to mechanical or thermal stimuli applied to hind paws. These withdrawal thresholds were ascertained before and after UVB exposure. Mice were confined by plexi-glass enclosures on top of 25×26 cm Bio Rad Gel Doc 2000 UV transilluminator (302 nm), and otherwise allowed to openly explore this environment. UV-exposure lasted for 5 minutes with an exposure of 600 mJ/cm^2.
# Hindpaw mechanical withdrawal thresholds were determined by the automated von Frey hair method, using a 0.5 mm diameter stainless steel filament, part of an automated plantar touch stimulator (Ugo Basile, Modena, Italy). Relevant detail included pre-test acclimatization in a quiet room for 30 min, conducting the test at the same time of day and blinded observers. The stimulus was delivered to the hindpaw, automatically discontinued upon withdrawal, and its intensity recorded automatically. 6-8 trials per animal were conducted, with equal exposure of both hindpaws, leading to an average withdrawal threshold. Results are reported as Δ-threshold, which was calculated by subtracting post-treatment from pre-treatment measurements, expressed as % or relative to 1.0.
# Hindpaw thermal (hot) withdrawal thresholds were determined by the well-established Hargreaves' method, using an infra-red thermal stimulation device that delivers the stimulus from underneath the hindpaw combined with automatic shut-off upon withdrawal (Ugo Basile). Stimulation and measurements were conducted as described for von Frey hair testing. A cutoff of 20 sec was set to prevent tissue damage.
# In view of the observed impact of epidermal-specific TRPV4-deficiency on mouse nociception in response to UVB, and because of the unambiguous effects of selective TRPV4 blockers on 1° MK in vitro, we tested the possible clinical relevance of our findings. For this purpose, we topically applied TRPV4 inhibitor GSK205 to WT mouse skin and subsequently exposed animals to UVB (FIG. 12A).
# TRPV4 = biological target: T1, TRPV4 (Mus musculus, UniProt Q9EPK8); assay: GSK101-evoked Ca++ transient in 1° MK (fura-2); format: cell-based; conditions: 5 nM GSK101; 20 μM GSK205
# T1 construct: Primary mouse keratinocytes were derived from back skin of newborn mice; endogenous in cells; host or cells: primary mouse epidermal keratinocytes (1° MK), wild type
# Experimental: Ca++ imaging of mouse 1° MK in response to chemical activation of TRPV4 was conducted after loading with 2 μM fura2-AM, following a ratiometric Ca2+ imaging protocol with 340/380 nm […] for dual excitation. Ratios of emissions were acquired at 0.5 Hz. ΔR/R0 was determined as the fraction of the increase of a given ratio over baseline ratio, divided by baseline ratio. For stimulation of cells with UVB, where fura-2 was not suitable because of the proximity of stimulation with 340/380 nm and 295 nm, 2 μM fluo4-AM was used instead. Ca++ imaging was carried out at 488 nm excitation, acquisition of emissions at 0.5 Hz, expressed as ΔF/F0. In the custom-built UV optical system, UV LEDs were capped with a ball lens, a transparent optical window in the shape of a hemispherical lens (FIG. 2B). The LED output optical beam focused at 15-20 mm from the lens, with a spot diameter of approximately 1.5˜2.0 mm (FIG. 2C). […] The thermal equilibration stage was set for physiological temperature. We confirmed the non-thermal nature of UVB stimulation using the customized 295 nm LED device in a dedicated experiment (FIG. 2D), thus confirming the specific modality of stimulation as UVB.
# We obtained corroborating findings by chemically activating TRPV4 with GSK101, which can directly stimulate TRPV4 in WT 1° MK. […]
# ET1 secretion by 1° MK = assay: ET1 secretion by non-stimulated 1° MK (ELISA of supernatant); format: cell-based, mouse
# Experimental: FIG. 8: Central role for KC TRPV4 in UVB-evoked Ca^++ signaling and nocifensive behavior—ET1-related supplementary findings. (A) Augmentation of GSK101-evoked Ca^++ signaling by ET1. Shown are averaged Ca^++ measurements (fura-2) in response to 5 nM GSK101. […] (B) ET1 secretion by non-stimulated 1° MK depends on TRPV4 and PLC. Shown are relative ET1 concentrations (determined by ELISA, pg/mL; vehicle-treated and WT control normalized to 100) in supernatant of non-stimulated 1° MK. Note the clear dependence on TRPV4, as indicated by a 50% reduction in Trpv4^−/− 1° MK. […] In addition, PLC-inhibitor robustly affects ET1 secretion in WT and Trpv4^−/− 1° MK. (C) ET1 expression by UVB-exposed 1° MK depends on TRPV4 and PLC—immunocytochemistry. Shown is specific ET1 immunolabeling in 1° MK, exposed to UVB using the UVB-LEDs, as for Ca^++ imaging. Use of the UVB-LED device precluded application of a ET1 ELISA, only irradiated cells could be examined. […] (D) ET1 expression by UVB-exposed 1° MK depends on TRPV4 and PLC—quantification of immunocytochemistry.
# as §1
# T1 sequence (Q9EPK8 whole entry): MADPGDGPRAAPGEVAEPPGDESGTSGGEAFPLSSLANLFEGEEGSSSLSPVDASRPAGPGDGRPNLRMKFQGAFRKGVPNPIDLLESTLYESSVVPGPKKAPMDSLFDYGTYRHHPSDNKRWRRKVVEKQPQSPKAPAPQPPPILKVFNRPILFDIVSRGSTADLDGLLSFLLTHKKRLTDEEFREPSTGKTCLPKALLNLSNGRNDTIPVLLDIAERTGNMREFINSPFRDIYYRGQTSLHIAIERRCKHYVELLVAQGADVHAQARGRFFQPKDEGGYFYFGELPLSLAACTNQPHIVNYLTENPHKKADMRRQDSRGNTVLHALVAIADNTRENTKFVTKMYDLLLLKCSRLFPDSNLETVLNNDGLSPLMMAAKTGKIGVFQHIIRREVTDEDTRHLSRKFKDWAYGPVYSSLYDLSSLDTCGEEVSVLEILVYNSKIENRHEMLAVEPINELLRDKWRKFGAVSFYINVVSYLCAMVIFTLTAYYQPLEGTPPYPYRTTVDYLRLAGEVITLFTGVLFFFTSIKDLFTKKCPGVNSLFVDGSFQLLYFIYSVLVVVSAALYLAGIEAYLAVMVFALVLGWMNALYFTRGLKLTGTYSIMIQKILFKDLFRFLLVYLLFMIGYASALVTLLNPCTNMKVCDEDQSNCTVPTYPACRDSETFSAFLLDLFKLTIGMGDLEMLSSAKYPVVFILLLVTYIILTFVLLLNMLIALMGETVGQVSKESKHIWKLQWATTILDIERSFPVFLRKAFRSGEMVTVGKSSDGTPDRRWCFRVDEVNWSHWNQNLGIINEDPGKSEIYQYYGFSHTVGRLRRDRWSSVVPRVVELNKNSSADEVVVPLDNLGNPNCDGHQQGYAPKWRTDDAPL
compound,measurement,setting,value
CN(CCc1ccc(Nc2nc(-c3cccnc3)cs2)cc1)Cc1ccccc1 [GSK205],ET1 immunoreactivity in UVB-exposed 1° MK,ET1 expression in 1° MK,diminished; also recorded: significant down-regulation
same,delay in thermal sensitivity after UVB,"mice; topical 1 mM GSK205, Hargreaves' test",~24 h
same,sensitivity to von Frey hair mechanical stimulation after UVB,mice; topical 5 mM GSK205,significantly reduced sensitivity
same,thermally-evoked nocifensive behavior (thermal allodynia) after UVB,"mice; topical 5 mM GSK205, Hargreaves' test, 48 hours post-UVB",sustained attenuation; also recorded: significant attenuation of thermal allodynia
same,nocifensive behavior after UVB in Trpv4−/− mice (off-target effects),"mice; topical 5 mM GSK205 vs. vehicle, Trpv4−/− mice",did not show any inter-group differences; also recorded: lack of off-target effects
same,GSK101-evoked Ca++ transient,TRPV4,eliminated; also recorded: completely blocked
same,ET1 secretion by non-stimulated 1° MK,ET1 secretion by 1° MK,significant down-regulation
